# Measurements taken from paper PMC6204900 (The Journal of Biological Chemistry, 2018).
# “Also recorded” adds a separate entry of the source. Like-named read-outs stand apart in the source and are kept apart here.
# Legend:
# IGF-1R [1] = molecular target: T1, IGF-1R (Homo sapiens, UniProt P08069); assay: Whole-cell receptor-binding assay, IGF-1R in transfected mouse embryonic fibroblasts
# T1 construct: expressed in transfected cells; host or cells: CHO-K1 (ATCC) stably transfected with pcDNA3-IGF-1R vector (gift of R. O'Connor); polyclonal CHO-R+ population
# Source text: (§1) Human IM-9 lymphocytes (containing IR-A) and IGF-1R null mouse embryonic fibroblasts, stably transfected with either human IR-B or human IGF-1R, were employed for a whole-cell receptor-binding assay as described previously ([32], [33], [42]). For details, see supporting information.
# (§2) ULTIMATE 3000 RSLCnano (Dionex, Thermo Scientific) coupled to TripleTOFTM 5600 (SCIEX).
# The extent of iodination in a specific position in the three fractions containing iodinated Tyr residues […]
# was approximated by comparing the area of peaks corresponding to peptides containing TyrB16, […]
# (§3) TyrB26 and TyrB32 and their iodinated counterparts.
# Human IM-9 lymphocytes (containing IR-A) and IGF-1R null mouse embryonic fibroblasts, […]
# stably transfected with either human IR-B or human IGF-1R, were employed for whole cell receptor- […]
# binding assay as described previously (3-5). […]
# binding buffer (100 mM HEPES, 100 mM NaCl, 5 mM KCl, 1.3 mM MgSO4, 1 mM EDTA, 10 mM […]
# glucose, 15 mM NaOAc, 1 % w/v BSA, pH 7.6). After incubation 2 x 200 µL were centrifuged at […]
# (§4) 15,000 x g for 10 min in microfuge tubes containing 200 µL of pre-cooled HEPES binding buffer.
# Radioactive pellets were counted using the Gamma Counter Wizard 1470 (Perkin Elmer). Binding data […]
# (§5) were analyzed by Excel software using a method of non-linear regression and a one-site fitting program […]
# developed in the laboratory of Dr. Pierre De Meyts (A.V. Groth and R.M. Shymko, Hagedorn Research […]
# Institute, Denmark, a kind gift of Pierre De Meyts). […]
# set up to 0.3 nM. Receptor binding assays were performed under conditions excluding the depletion of […]
# (§6) calculated using the two-tailed t test. […]
# Following the incubation, the cells were washed twice with ice-cold binding buffer and solubilized with 0.1 M NaOH. Cell-associated radioactivity was counted using the Gamma Counter Wizard 1470 (Perkin Elmer). Binding data were analyzed by and the dissociation constant (Kd) was determined with GraphPad Prism 5 using a non-linear regression, a one-site fitting program and taking into account potential depletion of free ligand.
# Each binding curve was determined […]
# IR-A [2] = molecular target: T2, IR-A (Homo sapiens, UniProt P06213); assay: Whole-cell receptor-binding assay, IR-A in IM-9 lymphocytes; conditions: as E1; measurement series ≈; read-out: IR-A Kd ± S.D. (n)
# T2 construct: host or cells: human IM-9 lymphocytes
# Source text: as §1, §2
# The extent of iodination in a specific position in the three fractions containing iodinated Tyr residues
# was approximated by comparing the area of peaks corresponding to peptides containing TyrB16,
# as §3
# Human IM-9 lymphocytes (containing IR-A) and IGF-1R null mouse embryonic fibroblasts,
# stably transfected with either human IR-B or human IGF-1R, were employed for whole cell receptor-
# binding assay as described previously (3-5).
# binding buffer (100 mM HEPES, 100 mM NaCl, 5 mM KCl, 1.3 mM MgSO4, 1 mM EDTA, 10 mM
# glucose, 15 mM NaOAc, 1 % w/v BSA, pH 7.6). After incubation 2 x 200 µL were centrifuged at
# as §4
# Radioactive pellets were counted using the Gamma Counter Wizard 1470 (Perkin Elmer). Binding data
# as §5, §6
# IR-A [3] = molecular target: T2, IR-A; assay: Association, dissociation and accelerated dissociation kinetics of 125I-labeled ligands on IR-A in IM-9 cells; type: binding
# Protocol: (§7) For details, see supporting information.
# (§8) HEPES binding buffer. The use of bovine serum albumin in the binding buffer (e.g. Sigma-Aldrich […]
# (§9) Following the incubation, the cells were washed twice with ice-cold binding buffer and solubilized with 0.1 M NaOH. Cell-associated radioactivity was counted using the Gamma Counter Wizard 1470 (Perkin […]
# (§10) Each binding curve was determined
# (§11) For dose-response curves for accelerated dissociation the cells (3 x 10^7/mL) in HEPES binding buffer were preincubated with the radio-labeled ligand (about 2500 Ci/mmol, 150,000 cpm/mL, about 0.03 nM) for 2.5 hours at 15°C. After the preincubation, the suspension was centrifuged at 1000 x g, 4°C for 5 min and the supernatant containing the unbound radioactivity was discarded. The pellet was resuspended in the initial volume of buffer.
# IGF-1R [4] = molecular target: T1, IGF-1R; assay: Ligand-dose response IGF-1R autophosphorylation, In-Cell Western assay; type: cell-based; conditions: 0.1-100 nM ligand, 20 min, relative to 10 nM IGF-1
# Protocol: Ligand–dose response IGF-1R autophosphorylation levels for selected analogs were determined, using the In-Cell Western assay adapted for chemiluminescence as described ([34]). […] Experiments were repeated at least four times. Log(agonist) versus response curve fitting of data was carried out with GraphPad Prism 5.
# Mean ± S.D. (n ≥ 4) values were calculated.
# one-way analysis of variance (ANOVA) with Dunnett’s test comparing all analogs versus control i.e.
# Ligand-dose response IGF-1R autophosphorylation levels for selected analogs were determined, using In-Cell Western assay adapted for chemiluminiscence as described in (6). The IGF-1R cells were plated at 20,000 cells/well in white 96-well Brand plates cell grade (Brand GMBH, Germany) and incubated for 24 hours. Cells were afterwards starved for 4 hours in serum-free media and stimulated with dilutions of ligands (0-100 nM) for 20 min. After the incubation, the medium was discarded and the cells were fixed in 3.75 % v/v freshly prepared formaldehyde for 20 min. […]
# Then plates were thoroughly washed with TBS and incubated with peroxidase-labeled anti-rabbit secondary antibody (Sigma) for 1 hour at room temperature, and washed again. SuperSignal West Femto maximum sensitivity substrate was added to each well and chemiluminiscence was detected using the ChemiDoc MP Imaging System after 5 min. […]
# IGF-1R [5] = molecular target: T1, IGF-1R; assay: Receptor phosphorylation assay (immunoblotting), IGF-1R-transfected mouse fibroblasts (R+39); type: cell-based; conditions: 10 nM ligand, 10 min, n ≥ 4
# Source text: For details, see supporting information. […] Each experiment was repeated four times.
# IGF-1R [6] = molecular target: T1, IGF-1R; assay: Association, dissociation and accelerated dissociation kinetics of 125I-labeled ligands on IGF-1R in CHO-R+ cells; type: binding; conditions: for (d1) dissociation rate at maximum acceleration ± S.D., IGF-1R / dissociation rate (measured) ± S.D., IGF-1R: 15°C; for (d1) dissociation rate at maximum acceleration ± S.D., IGF-1R: dissociation of 125I-labeled ligand in the presence of 170 nM cold ligand (17 μM for insulin), monoexponential decay fit; for dissociation rate (measured) ± S.D., IGF-1R: dissociation of 125I-labeled ligand without cold ligand; for Shape of dose-response curve for accelerated dissociation, IGF-1R: 125I-labeled ligand preincubated […] at 15°C, cold ligand 0.001 nM-10 µM for 30 min at 15°C
# Protocol: as §7, §8, §9, §10, §11
# T2 sequence (P06213 28-1370 isoform P06213-2 limits assumed): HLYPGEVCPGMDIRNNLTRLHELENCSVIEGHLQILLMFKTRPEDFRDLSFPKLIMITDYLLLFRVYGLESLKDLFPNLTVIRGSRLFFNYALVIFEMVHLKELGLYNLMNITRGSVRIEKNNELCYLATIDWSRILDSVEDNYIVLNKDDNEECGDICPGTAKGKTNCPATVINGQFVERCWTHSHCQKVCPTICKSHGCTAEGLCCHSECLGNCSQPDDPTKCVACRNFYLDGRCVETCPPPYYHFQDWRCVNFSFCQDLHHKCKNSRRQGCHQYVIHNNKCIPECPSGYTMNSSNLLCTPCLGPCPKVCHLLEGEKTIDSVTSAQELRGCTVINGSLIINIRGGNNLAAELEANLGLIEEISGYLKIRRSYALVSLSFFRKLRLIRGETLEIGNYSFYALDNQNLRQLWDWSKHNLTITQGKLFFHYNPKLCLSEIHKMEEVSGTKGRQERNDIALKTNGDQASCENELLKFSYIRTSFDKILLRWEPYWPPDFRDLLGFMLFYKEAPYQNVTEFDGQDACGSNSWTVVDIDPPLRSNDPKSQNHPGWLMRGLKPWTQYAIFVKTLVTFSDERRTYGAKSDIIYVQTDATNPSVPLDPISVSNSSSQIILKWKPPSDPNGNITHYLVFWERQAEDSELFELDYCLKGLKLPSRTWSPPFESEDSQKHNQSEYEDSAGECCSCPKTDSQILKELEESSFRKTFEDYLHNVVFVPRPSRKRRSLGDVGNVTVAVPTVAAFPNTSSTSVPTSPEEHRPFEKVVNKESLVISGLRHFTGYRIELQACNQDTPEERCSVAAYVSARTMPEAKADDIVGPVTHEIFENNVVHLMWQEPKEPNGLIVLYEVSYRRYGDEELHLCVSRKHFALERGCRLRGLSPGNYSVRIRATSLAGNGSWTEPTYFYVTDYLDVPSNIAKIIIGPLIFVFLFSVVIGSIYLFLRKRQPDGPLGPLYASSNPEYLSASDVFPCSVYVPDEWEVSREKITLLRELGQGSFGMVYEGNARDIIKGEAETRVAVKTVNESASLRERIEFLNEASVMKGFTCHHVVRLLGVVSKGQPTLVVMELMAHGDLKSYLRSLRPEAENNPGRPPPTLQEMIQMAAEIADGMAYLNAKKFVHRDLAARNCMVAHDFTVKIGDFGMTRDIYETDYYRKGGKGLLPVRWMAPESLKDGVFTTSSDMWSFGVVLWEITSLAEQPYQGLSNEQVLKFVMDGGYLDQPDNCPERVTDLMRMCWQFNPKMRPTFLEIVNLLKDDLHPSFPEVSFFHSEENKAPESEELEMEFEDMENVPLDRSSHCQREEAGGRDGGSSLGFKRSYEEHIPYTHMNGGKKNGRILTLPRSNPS
# T2 sequence (P06213 763-1382 partner limits assumed): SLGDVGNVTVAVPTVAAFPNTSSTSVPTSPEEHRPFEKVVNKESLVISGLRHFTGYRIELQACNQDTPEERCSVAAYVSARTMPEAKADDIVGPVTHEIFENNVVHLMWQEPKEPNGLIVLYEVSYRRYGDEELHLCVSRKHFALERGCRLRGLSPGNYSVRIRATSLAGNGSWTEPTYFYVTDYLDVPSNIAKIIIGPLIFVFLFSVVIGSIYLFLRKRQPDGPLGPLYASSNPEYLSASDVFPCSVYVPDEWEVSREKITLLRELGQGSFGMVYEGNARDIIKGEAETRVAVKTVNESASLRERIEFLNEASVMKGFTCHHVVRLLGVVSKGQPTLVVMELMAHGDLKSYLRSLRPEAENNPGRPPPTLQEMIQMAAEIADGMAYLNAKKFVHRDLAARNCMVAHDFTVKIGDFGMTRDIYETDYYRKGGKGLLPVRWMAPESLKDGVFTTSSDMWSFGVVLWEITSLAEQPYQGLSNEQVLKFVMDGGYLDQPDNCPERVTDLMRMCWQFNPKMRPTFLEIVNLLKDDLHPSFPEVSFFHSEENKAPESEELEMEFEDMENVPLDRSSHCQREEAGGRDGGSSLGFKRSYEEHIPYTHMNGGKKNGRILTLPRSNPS
Substance,"Kd (IGF-1R [1]; IGF-1R null mouse embryonic fibroblasts transfected with human IGF-1R, competition with mono-125I-IGF-1 (about 0.01 nM), 16 h at 5°C, HEPES binding buffer, mean ± S.D. of n≥3 binding curves, measurement series #)",Kd (IR-A [2]),"(d1) dissociation rate at maximum acceleration ± S.D., IR-A (IR-A [3]; 15°C, dissociation of 125I-labeled ligand in the presence of 170 nM cold ligand, monoexponential decay fit)","dissociation rate (measured) ± S.D., IR-A (IR-A [3]; 15°C, dissociation of 125I-labeled ligand without cold ligand)","Shape of dose-response curve for accelerated dissociation, IR-A (IR-A [3]; 125I-labeled ligand preincubated […] at 15°C, cold ligand 0.001 nM-10 µM for 30 min at 15°C)",Dose-response of IGF-1R stimulation (IGF-1R [4]),Ability to stimulate IGF-1R phosphorylation (IGF-1R [5]),"Kd (IGF-1R [1]; as E12, measurement series $, read-out: IGF-1R Kd ± S.D. (n))",Increase of binding to IGF-1R compared with insulin (IGF-1R [1]; from Table 1 binding affinities),"(d1) dissociation rate at maximum acceleration ± S.D., IGF-1R (IGF-1R [6])","dissociation rate (measured) ± S.D., IGF-1R (IGF-1R [6])","Shape of dose-response curve for accelerated dissociation, IGF-1R (IGF-1R [6])"
"IGF-2: insulin-like growth factor 2, protein hormone closely related to insulin",2.32 ± 1.24 nM,2.92 ± 0.24 nM,,,,,,,,,,
"[D-His^B24, Gly^B31, Tyr^B32]-insulin",,,0.0432 ± 0.0032 min⁻¹,0.0017 ± 0.0002 min⁻¹,bell-shaped,equipotent to IGF-2,increased stimulation of the receptor; also recorded: to an extent approximating IGF-2,0.89 ± 0.2 nM,about 150 fold,0.0203 ± 0.0038 min⁻¹,0.0064 ± 0.0035 min⁻¹,sigmoid
insulin [reference compound],,,,,,,,,,0.0069 ± 0.0004 min⁻¹,0.0026 ± 0.0010 min⁻¹,sigmoid
